# In PMC12294314, “Bioactive Properties of Persea americana Peel Extract and Their Role in Hypercholesterolemia Management and Cardiovascular Health” (Foods, 2025):
# Where two headings read alike, the source gives them in different places.
# What was measured:
# [1] = system: Caco-2 cells; assay: Permeation of extract compounds across Caco-2 monolayer (Papp); type: in vitro ADME, human
# Procedure: (§1) The permeation of the extract in Caco-2 cells was evaluated for three phenolic compounds previously identified and quantified, namely chlorogenic acid, catechin, and epicatechin. […] After 6 h, a sample was collected from the basolateral side and analyzed by HPLC-DAD, using a LiChroCART® 250-4 LiChrospher® 100 RP-18 (5 μm) column (Merck KGaA, Darmstadt, Germany), following the conditions described in a previous study.
# [2] = as above; type: in vitro ADME, human; conditions: human
# Procedure: as §1
# [3] = system: HepG2 cells; assay: Reactive oxygen species (ROS) production in HepG2 cells (DCFDA); type: cell-based, human; conditions: TBHP 200 µM alone, 6 h, PBS control = 100%
# Procedure: The quantification of reactive oxygen species (ROS) produced in the HepG2 cell line was assessed. HepG2 cells were plated at a concentration of 2.5 × 10^4 cells/well in a black, transparent-bottom 96-well microplate and incubated for 24 h. Afterward, a solution of the 2′,7′–dichlorodifluorescin diacetate (DCFDA) (0.1 mM) was added to the cells and they were incubated in the dark for 45 min. The solution was then removed, and the following samples were applied: a control with only the PBS, tert-butyl hydroperoxide (TBHP) at 200 µM, the extract at 0.164 mg/mL, and a combination of the extract and THBP with their final concentrations being 0.164 mg/mL and 200 µM, respectfully. The microplate was incubated for 6 h in the dark, after which fluorescence was measured with excitation at 495 nm and emission at 527 nm, both at 37 °C (SpectraMax® GEMINI XPS/EM, Molecular Devices®, San Jose, CA, USA). ROS production was determined using Equation (1) by considering that the fluorescence produced by the control group was 100%.(1) ROS Production % =AbsSample/AbsControl × 100 where AbsSample corresponds to the absorbance of the samples and AbsControl corresponds to the absorbance of the control. The assays were carried out in quadruplicate.
# [4] = system: Caco-2 cells; assay: Cholesterol permeation across differentiated Caco-2 monolayer; type: cell-based, human; conditions: cholesterol 5 mM apical, 6 h, extract 0.240 mg/mL, ezetimibe 0.1 mM (methods) / 0.01 mM (Figure 3 legend)
# Procedure: The cholesterol permeation assays were carried out by following the protocol described by Arantes et al.. Caco-2 cells were cultured in a 12-well microplate with inserts (A = 1.1 cm^2) and maintained until differentiation. To evaluate the integrity of the membrane, transepithelial electrical resistance (TEER) of the formed membrane was measured. When the TEER value exceeded 250 Ω·cm^2, it was considered that the membrane was formed.
# Subsequently, 0.5 mL of the solutions to be analyzed was added on the apical side of each insert: cholesterol (5 mM) (control), extract (0.240 mg/mL), extract (0.240 mg/mL) with cholesterol (5 mM), and ezetimibe (0.1 mM) with cholesterol (5 mM). On the basolateral side, 1.5 mL of the Hank’s Balanced Salt Solution (HBSS) was added. The cells were incubated at 37 °C in a 5% CO2 atmosphere for 6 h. After this period, the basolateral solution of each well was collected and analyzed by high-performance liquid chromatography coupled to a diode-array detector (HPLC-DAD) using an Elite LaChrom® (HITACHI, VWR, Tokyo, Japan), with an Autosampler L-2200, a Column Oven L-2300, and a Diode Array Detector L 2455 (VWR, Radnor, PA, USA). The column used was LiChroCART® 250-4 LiCrosphere®100 RP-8 (5 μm) (Merk, Darmstadt, Germany). The conditions followed were the ones presented by Pinto et al.. […]
compound,measurement,setting,value
"Oc1cc(O)c2c(c1)OC(c1ccc(O)c(O)c1)C(O)C2 (single isomer, unassigned; (+)) [Catechin (13), (+)-Catechin]",Papp,[1]; Caco-2,14.4 10^−6 cm/s
"O=C(/C=C/c1ccc(O)c(O)c1)O[C@@H]1C[C@](O)(C(=O)O)C[C@@H](O)[C@H]1O [Chlorogenic Acid (3), Chlorogenic Acid]","Papp at 6 h, 0.24 mg/mL","[2]; Caco-2, apical sample: extract (0.240 mg/mL), Caco-2, 6 h, read-out: Papp",6.5 ×10⁻⁶ cm/s
same,"Papp at 6 h, 0.24 mg/mL","[2]; Caco-2, apical sample: extract, Caco-2, read-out: Permeability class (from Papp)",1 to 10 ×10⁻⁶ cm/s
"Oc1cc(O)c2c(c1)O[C@H](c1ccc(O)c(O)c1)[C@H](O)C2 [Epicatechin (15), (−)-Epicatechin]","Papp at 6 h, 0.24 mg/mL","[2]; Caco-2, Permeability class (from Papp)",> 10 ×10⁻⁶ cm/s
same,Papp,"[1]; human, Caco-2, 6 h, 0.24 mg/mL",24.0 10^−6 cm/s
"CC(C)(C)OO [TBHP, tert-butyl hydroperoxide]",ROS production (% of control),[3],approximately 395%
O=C1[C@H](CC[C@H](O)c2ccc(F)cc2)[C@@H](c2ccc(O)cc2)N1c1ccc(F)cc1 [ezetimibe],Reduction in cholesterol permeability,[4],62 ± 5%
